Source: US12110305B2, “Prodrugs of phosphonamide nucleotide analogues and their pharmaceutical use” (priority 2020, dated 2024)

Tested on: HIV-1 (IIIB)
Assay: Antiviral (HIV) assay in MT-4 cells
Assay type: cell-based
Details: Human immunodeficiency virus 1, MT4, 120 h; HIV-1 IIIB in MT-4 cells, 5 days incubation, Cell Titer Glo; average of at least two independent experiments
Experimental: Example 104: Antiviral (HIV) Assay in MT-4 Cells
Compounds were tested in a high-throughput 384-well assay format for their ability to inhibit the replication of HIV-1 (IIIB) in MT-4 cells. Compounds were serially diluted (1:3) in DMSO on 384-well polypropylene plates and further diluted 200-fold into complete RPMI media (10% FBS, 1% P/S) using the Biotek Micro Flow and Labcyte ECHO acoustic dispenser. Each plate contained up to 8 test compounds, with negative (no drug) and positive (5 μM AZT) controls. MT-4 cells were pre-treated with 10 μL of either RPMI (mock-infected) or a fresh 1:250 dilution of HIV-1 IIIB concentrated virus stock. Infected and uninfected MT-4 cells were further diluted in complete RPMI media and added to each plate using a Micro Flow dispenser. After 5 days incubation in a humidified and temperature-controlled incubator (37° C.), Cell Titer Glo (Promega) was added to the assay plates and chemiluminescence read using an Envision plate-reader. EC50 values were defined as the compound concentration that causes a 50% decrease in luminescence signal and were calculated using a sigmoidal dose-response model to generate curve fits and are shown in Table 1.

| Compound | EC50 [nM] |
| --- | --- |
| C[C@H](Cn1cnc2c(N)ncnc21)OCP(=O)(N[C@@](C)(Cc1ccccc1)C(=O)OCC1CCCCC1)N[C@@](C)(Cc1ccccc1)C(=O)OCC1CCCCC1 [Example 15, Bis(cyclohexylmethyl) 2,2′-((((((R)-1-(6-amino-9H-purin-9-yl)propan-2-yl)oxy)methyl)phosphoryl)bis(azanediyl))(2S,2'S)-bis(2-methyl-3-phenylpropanoate)] | 17 |
| CCCCCCOC(=O)C(C)(C)NP(=O)(CO[C@H](C)Cn1cnc2c(N)ncnc21)N[C@]1(C(=O)OCCCCCC)C[C@H]1CC (stereo partly drawn) [Example 16, Hexyl (1R,2R)-1-((((((R)-1-(6-amino-9H-purin-9-yl)propan-2-yl)oxy)methyl)((1-(hexyloxy)-2-methyl-1-oxopropan-2-yl)amino)phosphoryl)amino)-2-ethylcyclopropane-1-carboxylate] | 35 |
| CCCCCCOC(=O)[C@@]1(NP(=O)(CO[C@H](C)Cn2cnc3c(N)ncnc32)N[C@]2(C(=O)OCCCCCC)C[C@H]2CC)C[C@H]1CC [Example 17, Dihexyl 1,1′-((((((R)-1-(6-amino-9H-purin-9-yl)propan-2-yl)oxy)methyl)phosphoryl)bis(azanediyl))(1R,1′R,2R,2′R)-bis(2-ethylcyclopropane-1-carboxylate)] | > 500 |
| CCCCCCOC(=O)C(C)(C)NP(=O)(CO[C@H](C)Cn1cnc2c(N)ncnc21)NC1(C(=O)OCCCCCC)CCC1 (stereo partly drawn) [Example 18, Hexyl 1-((((((R)-1-(6-amino-9H-purin-9-yl)propan-2-yl)oxy)methyl)((1-(hexyloxy)-2-methyl-1-oxopropan-2-yl)amino)phosphoryl)amino)cyclobutane-1-carboxylate] | 13 |
| CCCCCCOC(=O)C1(NP(=O)(CO[C@H](C)Cn2cnc3c(N)ncnc32)NC2(C(=O)OCCCCCC)CCC2)CCC1 [Example 19, Dihexyl 1,1′-(((((1-(6-amino-9H-purin-9-yl)propan-2-yl)oxy)methyl)phosphoryl)bis(azanediyl))(R)-bis(cyclobutane-1-carboxylate)] | 30 |
| CCCCCCOC(=O)C(C)(C)NP(=O)(CO[C@H](C)Cn1cnc2c(N)ncnc21)NC1(C(=O)OCCCCCC)CC1 (stereo partly drawn) [Example 20, Hexyl 1-((((((R)-1-(6-amino-9H-purin-9-yl)propan-2-yl)oxy)methyl)((1-(hexyloxy)-2-methyl-1-oxopropan-2-yl)amino)phosphoryl)amino)cyclopropane-1-carboxylate] | 12 |
| CCC[C@H]1CC[C@H](OC(=O)C(C)(C)NP(=O)(CO[C@H](C)Cn2cnc3c(N)ncnc32)NC(C)(C)C(=O)O[C@H]2CC[C@H](CCC)CC2)CC1 [Example 27] | 26 |
| CCCCCCOC(=O)C(C)(C)NP(=O)(CO[C@H](C)Cn1cnc2c(NC(C)=O)ncnc21)NC(C)(C)C(=O)OCCCCCC [Example 28, Dihexyl 2,2′-(((((1-(6-acetamido-9H-purin-9-yl)propan-2-yl)oxy)methyl)phosphoryl)bis(azanediyl))(R)-bis(2-methylpropanoate)] | 65 |
| CCCCCCOC(=O)C(C)(C)NP(=O)(CO[C@H](C)Cn1cnc2c(NC(=O)CCC)ncnc21)NC(C)(C)C(=O)OCCCCCC [Example 29, Dihexyl 2,2′-(((((1-(6-butyramido-9H-purin-9-yl)propan-2-yl)oxy)methyl)phosphoryl)bis(azanediyl))(R)-bis(2-methylpropanoate)] | 16 |
| CCCCCCCCCCCC(=O)Nc1ncnc2c1ncn2C[C@@H](C)OCP(=O)(NC(C)(C)C(=O)OCCCCCC)NC(C)(C)C(=O)OCCCCCC [Example 30, Dihexyl 2,2′-(((((1-(6-dodecanamido-9H-purin-9-yl)propan-2-yl)oxy)methyl)phosphoryl)bis(azanediyl))(R)-bis(2-methylpropanoate)] | 68 |
| CCCCCCOC(=O)C(C)(C)NP(=O)(CO[C@H](C)Cn1cnc2c(NC(=O)OCCC)ncnc21)NC(C)(C)C(=O)OCCCCCC [Example 31, Dihexyl 2,2′-(((((1-(6-((propoxycarbonyl)amino)-9H-purin-9-yl)propan-2-yl)oxy)methyl)phosphoryl)bis(azanediyl))(R)-bis(2-methylpropanoate)] | > 500 |
| CCCCCCOC(=O)C(C)(C)NP(=O)(CO[C@H](C)Cn1cnc2c(NC(=O)OCCCCC)ncnc21)NC(C)(C)C(=O)OCCCCCC [Example 32, Dihexyl 2,2′-(((((1-(6-(((pentyloxy)carbonyl)amino)-9H-purin-9-yl)propan-2-yl)oxy)methyl)phosphoryl)bis(azanediyl))(R)-bis(2-methylpropanoate)] | > 500 |
| CCCOC(=O)C(C)(C)NP(=O)(CO[C@H](C)Cn1cnc2c(N)ncnc21)NC(C)(C)C(=O)OCCC [Example 36, Dipropyl 2,2′-(((((1-(6-amino-9H-purin-9-yl)propan-2-yl)oxy)methyl)phosphoryl)bis(azanediyl))(R)-bis(2-methylpropanoate)] | 14 |
| CCCCOC(=O)C(C)(C)NP(=O)(CO[C@H](C)Cn1cnc2c(N)ncnc21)NC(C)(C)C(=O)OCCCC [Example 38, Dibutyl 2,2′-(((((1-(6-amino-9H-purin-9-yl)propan-2-yl)oxy)methyl)phosphoryl)bis(azanediyl))(R)-bis(2-methylpropanoate)] | 10 |
| CCCCCCCCOC(=O)C(C)(C)NP(=O)(CO[C@H](C)Cn1cnc2c(N)ncnc21)NC(C)(C)C(=O)OCCCCCCCC [Example 39, Dioctyl 2,2′-(((((1-(6-amino-9H-purin-9-yl)propan-2-yl)oxy)methyl)phosphoryl)bis(azanediyl))(R)-bis(2-methylpropanoate)] | 24 |

Molecules with a lower EC50, results first:

| EC50 [nM] | Compound |
| --- | --- |
| 7 | C[C@H](Cn1cnc2c(N)ncnc21)OCP(=O)(NC(C)(C)C(=O)O[C@H]1CC[C@H](C(F)(F)F)CC1)NC(C)(C)C(=O)O[C@H]1CC[C@H](C(F)(F)F)CC1 [Example 21, Bis(trans-4-(trifluoromethyl)cyclohexyl) 2,2′-((((((R)-1-(6-amino-9H-purin-9-yl)propan-2-yl)oxy)methyl)phosphoryl)bis(azanediyl))bis(2-methylpropanoate)] |
| 9 | CCCCCCOC(=O)C(C)(C)NP(=O)(CO[C@H](C)Cn1cnc2c(N)ncnc21)NC(C)(C)C(=O)O[C@H]1CC[C@H](C(F)(F)F)CC1 (stereo partly drawn) [Example 22, Hexyl 2-((((((R)-1-(6-amino-9H-purin-9-yl)propan-2-yl)oxy)methyl)((2-methyl-1-oxo-1-((trans-4-(trifluoromethyl)cyclohexyl)oxy)propan-2-yl)amino)phosphoryl)amino)-2-methylpropanoate] |
| 8 | C[C@H](Cn1cnc2c(N)ncnc21)OCP(=O)(NC(C)(C)C(=O)OCCCCC(F)(F)F)NC(C)(C)C(=O)OCCCCC(F)(F)F [Example 25, Bis(5,5,5-trifluoropentyl) 2,2′-(((((1-(6-amino-9H-purin-9-yl)propan-2-yl)oxy)methyl)phosphoryl)bis(azanediyl))(R)-bis(2-methylpropanoate)] |
| 6 | C[C@H](Cn1cnc2c(N)ncnc21)OCP(=O)(NC(C)(C)C(=O)O[C@H]1C[C@H](C(F)(F)F)C1)NC(C)(C)C(=O)O[C@H]1C[C@H](C(F)(F)F)C1 [Example 26, Bis(trans-3-(trifluoromethyl)cyclobutyl) 2,2′-((((((R)-1-(6-amino-9H-purin-9-yl)propan-2-yl)oxy)methyl)phosphoryl)bis(azanediyl))bis(2-methylpropanoate)] |
| 7 | CCCCCCOC(=O)C(C)(C)NP(=O)(CO[C@H](C)Cn1cnc2c(NC(=O)OCc3oc(=O)oc3C)ncnc21)NC(C)(C)C(=O)OCCCCCC [Example 33, Dihexyl 2,2′-(((((1-(6-((((5-methyl-2-oxo-1,3-dioxol-4-yl)methoxy)carbonyl)amino)-9H-purin-9-yl)propan-2-yl)oxy)methyl)phosphoryl)bis(azanediyl))(R)-bis(2-methylpropanoate)] |
| 3 | C[C@H](Cn1cnc2c(N)ncnc21)OCP(=O)(NC(C)(C)C(=O)OC1CCCC1)NC(C)(C)C(=O)OC1CCCC1 [Example 34, Dicyclopentyl 2,2′-(((((1-(6-amino-9H-purin-9-yl)propan-2-yl)oxy)methyl)phosphoryl)bis(azanediyl))(R)-bis(2-methylpropanoate)] |
| 5 | CC(C)COC(=O)C(C)(C)NP(=O)(CO[C@H](C)Cn1cnc2c(N)ncnc21)NC(C)(C)C(=O)OCC(C)C [Example 35, Diisobutyl 2,2′-(((((1-(6-amino-9H-purin-9-yl)propan-2-yl)oxy)methyl)phosphoryl)bis(azanediyl))(R)-bis(2-methylpropanoate)] |
| 4 | C[C@H](Cn1cnc2c(N)ncnc21)OCP(=O)(NC(C)(C)C(=O)OCC1CCC1)NC(C)(C)C(=O)OCC1CCC1 [Example 37, Bis(cyclobutylmethyl) 2,2′-(((((1-(6-amino-9H-purin-9-yl)propan-2-yl)oxy)methyl)phosphoryl)bis(azanediyl))(R)-bis(2-methylpropanoate)] |
| 6 | C[C@H](Cn1cnc2c(N)ncnc21)OCP(=O)(NC(C)(C)C(=O)OC1CCCCC1)NC(C)(C)C(=O)OC1CCCCC1 [Example 40, Dicyclohexyl 2,2′-(((((1-(6-amino-9H-purin-9-yl)propan-2-yl)oxy)methyl)phosphoryl)bis(azanediyl))(R)-bis(2-methylpropanoate)] |
| 3 | C[C@H](Cn1cnc2c(N)ncnc21)OCP(=O)(NC(C)(C)C(=O)OC1CC2(CCC2)C1)NC(C)(C)C(=O)OC1CC2(CCC2)C1 (stereo partly drawn) [Example 41, Di(spiro[3.3]heptan-2-yl) 2,2′-(((((1-(6-amino-9H-purin-9-yl)propan-2-yl)oxy)methyl)phosphoryl)bis(azanediyl))(R)-bis(2-methylpropanoate)] |
